In one data set the target is T1, human GLP-1 receptor (Homo sapiens, UniProt P43220).
T1 construct: expressed in transfected cells; host or cells: BHK cells (parent BHKTS13), clone FCW467-12A/KZ10-1, with CRE luciferase
The data set is described as follows: GLP-1 receptor binding, 125I-GLP-1 displacement SPA on isolated membranes. Particulars: displacement of 125I-GLP-1 from membranes; read-out: IC50 GLP-1R. The procedure: The purpose of this assay was to test the in vitro receptor binding activity of the glucagon derivatives of the invention. The receptor binding is a measure of affinity of a compound for the human GLP-1 receptor.
The receptor binding of each compound to the human GLP-1 receptor was measured in a displacement binding assay. In this type of assay a labelled ligand (in this case 125I-GLP-1) is bound to the receptor. Each derivative was added in a series of concentrations to isolated membranes containing the human GLP-1 receptor and displacement of the labelled ligand was monitored. The receptor binding was reported as the concentration at which half of the labelled ligand was displaced from the receptor, the IC50 value.
In order to test the binding of the derivatives to albumin, the assay may be performed in a very low concentration of serum albumin (max. 0.001% final assay concentration) as well as in the presence of a higher concentration of serum albumin (2.0% final assay concentration). An increase of the IC50 value, in the presence of serum albumin indicates an affinity to serum albumin and represents a method to predict a protracted pharmacokinetic profile of the test substance in animal models.
The following chemicals were used in the assay: DMEM w/o phenol red (Gibco 11880-028), Pen/strep (Invitrogen 15140-122), G418 (Invitrogen 10131-027), 1 M Hepes (Gibco 15630), EDTA (Invitrogen 15575-038), PBS (Invitrogen 14190-094), fetal calf serum (Invitrogen 16140-071), EGTA, MgCl2 (Merck 1.05832.1000), Tween 20 (Amresco 0850C335), SPA particles (wheat germ agglutinin (WGA) SPA beads, Perkin Elmer RPNQ0001), [125I]-GLP-1]-(7-36)NH2 (produced in-house), OptiPlate™-96 (Perkin Elmer).
Buffer 1 consisted of 20 mM Na-HEPES plus 10 mM EDTA and pH was adjusted to 7.4.
Buffer 2 consisted of 20 mM Na-HEPES plus 0.1 mM EDTA and pH was adjusted to 7.4.
Assay buffer consisted of 50 mM HEPES supplemented with 5 mM EGTA, 5 mM MgCl2, 0.005% Tween 20 and pH was adjusted to 7.4.
The cells used in this assay (clone FCW467-12A) were BHK cells with BHKTS13 as a parent cell line. The cells express the human GLP-1 receptor.
The cells were grown at 5% CO2 in DMEM, 10% fetal calf serum, 1% Pen/Strep (Penicillin/Streptomycin) and 1.0 mg/ml of the selection marker G418. To make a membrane preparation the cells were grown to approximately 80% confluence. The cells were washed twice in phosphate-buffered saline and harvested. The cells were pelleted using a brief centrifugation and the cell pellet was kept on ice. The cell pellet was homogenised with ULTRA-THURRAX dispersing instrument for 20-30 sec in a suitable amount of buffer 1 (e.g. 10 ml). The homogenate was centrifuged for 15 min. The pellet was re-suspended (homogenised) in 10 ml buffer 2 and centrifuged. This step was repeated once more. The resulting pellet was re-suspended in buffer 2 and the protein concentration was determined. The membranes were aliquoted and stored at minus 80° C.
1. For the receptor binding assay, 50 μl of the assay buffer was added to each well of an assay plate.
2. Test compounds were serially diluted to give the following concentrations: 8×10EE-7 M, 8×10EE-8 M, 8×10EE-9 M, 8×10EE-10 M, 8×10EE-11 M, 8×10EE-12 M and 8×10EE-13 M. Twenty-five μl were added to appropriate wells in the assay plate.
3. Cell membrane aliquots were thawed and diluted to their working concentration. Fifty μl were added to each well in the assay plate.
4. WGA SPA beads were suspended in assay buffer at 20 mg/ml. The suspension was diluted to 10 mg/ml in assay buffer just prior to addition to the assay plate. Fifty μl were added to each well in the assay plate.
5. The incubation was started by adding 25 μl of 480 pM solution of [125I]-GLP-1]-(7-36)NH2 to each well of the assay plate. A 25 μl aliquot was reserved for measuring total counts/well.
6. The assay plate was incubated for 2 h at 30° C.
7. The assay plate was centrifuged for 10 min.
8. The assay plate was read in a Perkin Elmer TopCount NXT instrument. […]
(In general: Displacement assays read how much labelled ligand stays bound in the presence of the test substance.)

Data set [1] is described as follows: Thioflavin T (ThT) fibrillation assay for physical stability. As to conditions: 250 μM in 10 mM HEPES buffer, pH 7.5, 37° C., shaking 960 rpm. The format is physicochemical. From the text: The purpose of this assay was to assess the physical stability of the glucagon derivatives of the invention in aqueous solutions.
Low physical stability of a peptide may lead to amyloid fibril formation, which is observed as well-ordered, thread-like macromolecular structures in the sample, which eventually may lead to gel formation. This has traditionally been measured by visual inspection of the sample. However, that kind of measurement is very subjective and depending on the observer. Therefore, the application of a small molecule indicator probe is much more advantageous. Thioflavin T (ThT) is such a probe and has a distinct fluorescence signature when binding to fibrils [Naiki et al; Anal. Biochem. 1989 177 244-249; LeVine; Methods. Enzymol. 1999 309 274-284].
The time course for fibril formation can be described by a sigmoidal curve with the following expression [Nielsen et al; Biochemistry 2001 40 6036-6046]:
Here, as depicted in FIG. 1, F is the ThT fluorescence at the time t. The constant t0 is the time needed to reach 50% of maximum fluorescence. The two important parameters describing fibril formation are the lag-time calculated by t0−2τ and the apparent rate constant kapp 1/τ.
Samples were prepared freshly before each assay. Each sample composition is described in the legends. The pH of the sample was adjusted to the desired value using appropriate amounts of concentrated NaOH and HCl. Thioflavin T was added to the samples from a stock solution in H2O to a final concentration of 1 μM.
Sample aliquots of 200 μl (250 μM of the glucagon derivative/analogue in 10 mM HEPES buffer, pH 7.5) were placed in a 96 well microtiter plate (Packard OptiPlate™-96, white polystyrene). Usually, four or eight replica of each sample (corresponding to one test condition) were placed in one column of wells. The plate was sealed with Scotch Pad (Qiagen).
Incubation at given temperature, shaking and measurement of the ThT fluorescence emission were done in a Fluoroskan Ascent FL fluorescence plate reader (Thermo Labsystems). The temperature was set to 37° C. and the plate was incubated with orbital shaking adjusted to 960 rpm with an amplitude of 1 mm. Fluorescence measurement was done using excitation through a 444 nm filter and measurement of emission through a 485 nm filter.
Each run was initiated by incubating the plate at the assay temperature for 10 min. The plate was measured every 20 minutes for a desired period of time. Between each measurement, the plate was shaken and heated as described.
After completion of the ThT assay the four or eight replica of each sample was pooled and centrifuged at 20000 rpm for 30 minutes at 18° C. The supernatant was filtered through a 0.22 μm filter and an aliquot was transferred to a HPLC vial.
The concentration of peptide in the initial sample and in the filtered supernatant was determined by reverse phase HPLC using an appropriate standard as reference. The percentage fraction the concentration of the filtered sample constituted of the initial sample concentration was reported as the recovery.
The measurement points were saved in Microsoft Excel format for further processing and curve drawing and fitting was performed using GraphPad Prism. The background emission from ThT in the absence of fibrils was negligible. The data points were typically a mean of four or eight samples.
The data set may be fitted to Eq. (1).

In general, IC50 refers to the point on the concentration scale where inhibition reaches its midpoint.

Numbered stars: 1 amine (or outer) side, 2 acyl side, 3 side chain; on linkers, the order of the positions; unused ones are H or OH. Square brackets hold non-standard residues; d marks the D form. Side chains are listed from the residue outwards. Peptide text beside a SMILES is read from it. * marks the point of attachment. C18 diacid = O=C(O)CCCCCCCCCCCCCCCCC(=O)*; γGlu = O=C(O)[C@H](CCC(=O)[*:2])N[*:1]; AEEA = NCCOCCOCC(=O)O; Aib = CC(C)(N)C(=O)O

T1 sequence (P43220 24-463): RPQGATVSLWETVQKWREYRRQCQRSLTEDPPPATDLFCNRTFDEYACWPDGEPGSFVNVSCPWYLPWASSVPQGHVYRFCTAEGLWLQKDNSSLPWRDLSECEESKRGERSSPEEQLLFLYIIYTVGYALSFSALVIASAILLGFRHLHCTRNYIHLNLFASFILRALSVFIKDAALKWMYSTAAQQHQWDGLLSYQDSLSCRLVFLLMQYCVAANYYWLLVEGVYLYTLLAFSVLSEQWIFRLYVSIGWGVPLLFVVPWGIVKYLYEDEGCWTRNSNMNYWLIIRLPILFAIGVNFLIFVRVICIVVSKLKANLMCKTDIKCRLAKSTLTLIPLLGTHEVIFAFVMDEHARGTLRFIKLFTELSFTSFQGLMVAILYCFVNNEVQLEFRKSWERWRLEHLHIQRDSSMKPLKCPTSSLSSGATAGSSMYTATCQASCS

As to `CC(C)C[C@H](NC(=O)[C@H](CC(C)C)NC(=O)[C@H](Cc1c[nH]c2ccccc12)NC(=O)[C@H](CCC(N)=O)NC(=O)[C@@H](NC(=O)[C@H](Cc1ccccc1)NC(=O)[C@H](CCC(=O)O)NC(=O)[C@H](CCCNC(=N)N)NC(=O)[C@H](C)NC(=O)[C@H](C)NC(=O)[C@H](CCCNC(=N)N)NC(=O)[C@H](CO)NC(=O)[C@H](CC(=O)O)NC(=O)[C@H](CC(C)C)NC(=O)[C@H](Cc1ccc(O)cc1)NC(=O)[C@H](CCCCN)NC(=O)[C@H](CO)NC(=O)[C@H](CC(C)C)NC(=O)[C@H](CC(=O)O)NC(=O)[C@H](CO)NC(=O)[C@@H](NC(=O)[C@H](Cc1ccccc1)NC(=O)[C@@H](NC(=O)CNC(=O)[C@H](CCC(N)=O)NC(=O)C(C)(C)NC(=O)[C@@H](N)Cc1c[nH]cn1)[C@@H](C)O)[C@@H](C)O)C(C)C)C(=O)N[C@@H](CC(N)=O)C(=O)N[C@@H](CCCCNC(=O)CC[C@H](NC(=O)CC[C@H](NC(=O)COCCOCCNC(=O)COCCOCCNC(=O)CC[C@H](NC(=O)CCCCCCCCCCCCCCCCC(=O)O)C(=O)O)C(=O)O)C(=O)O)C(N)=O` [Example 9, N^ε29-[(4S)-4-carboxy-4-[[(4S)-4-carboxy-4-[[2-[2-[2-[[2-[2-[2-[[(4S)-4-carboxy-4-(17-carboxyheptadecanoylamino)butanoyl]amino]ethoxy]ethoxy]acetyl]amino]ethoxy]ethoxy]acetyl]amino]butanoyl]amino]butanoyl]-[Aib2,Leu10,Ala18,Arg20,Glu21,Leu27,Lys29]-Glucagon amide] (H-H[Aib]QGTFTSDLSKYLDSRAAREFVQWLLNK([γGlu-γGlu-AEEA-AEEA-γGlu-C18 diacid])-NH2; N-terminus assumed), the IC50 at human GLP-1 receptor came to 0.2 nM. In addition, in data set [1], the THT assay Lag time (Ex. 76) was determined as 8 h.
As to `CC(C)C[C@H](NC(=O)[C@H](Cc1ccc(O)cc1)NC(=O)[C@H](CCCCN)NC(=O)[C@H](CO)NC(=O)[C@H](CC(C)C)NC(=O)[C@H](CC(=O)O)NC(=O)[C@H](CO)NC(=O)[C@@H](NC(=O)[C@H](Cc1ccccc1)NC(=O)[C@@H](NC(=O)CNC(=O)[C@H](CCC(N)=O)NC(=O)C(C)(C)NC(=O)[C@@H](N)Cc1c[nH]cn1)[C@@H](C)O)[C@@H](C)O)C(=O)N[C@@H](CC(=O)O)C(=O)N[C@@H](C)C(=O)N[C@@H](CCCNC(=N)N)C(=O)N[C@@H](CCCNC(=N)N)C(=O)N[C@@H](C)C(=O)N[C@@H](CCCNC(=N)N)C(=O)N[C@@H](CC(=O)O)C(=O)N[C@@H](Cc1ccccc1)C(=O)N[C@H](C(=O)N[C@@H](CCC(N)=O)C(=O)N[C@@H](Cc1c[nH]c2ccccc12)C(=O)N[C@@H](CC(C)C)C(=O)N[C@@H](CC(C)C)C(=O)N[C@@H](CCCCNC(=O)COCCOCCNC(=O)COCCOCCNC(=O)CC[C@H](NC(=O)CC[C@H](NC(=O)CC[C@H](NC(=O)CCCCCCCCCCCCCCCCC(=O)O)C(=O)O)C(=O)O)C(=O)O)C(=O)N[C@H](C(N)=O)[C@@H](C)O)C(C)C` [Example 58, N^ε28-[2-[2-[2-[[2-[2-[2-[[(4S)-4-carboxy-4-[[(4S)-4-carboxy-4-[[(4S)-4-carboxy-4-(17-carboxyheptadecanoylamino)butanoyl]amino]butanoyl]amino]butanoyl]amino]ethoxy]ethoxy]acetyl]amino]ethoxy]ethoxy]acetyl]-[Aib2,Leu10,Ala16,Arg20,Leu27,Lys28]-Glucagon amide] (H-H[Aib]QGTFTSDLSKYLDARRARDFVQWLLK([AEEA-AEEA-γGlu-γGlu-γGlu-C18 diacid])T-NH2; N-terminus assumed), the concentration for half-maximal inhibition (IC50) on human GLP-1 receptor stood at 0.2 nM.
Turning to `CC(C)C[C@H](NC(=O)[C@H](Cc1ccc(O)cc1)NC(=O)[C@H](CCCCN)NC(=O)[C@H](CO)NC(=O)[C@@H](NC(=O)[C@H](CC(=O)O)NC(=O)[C@H](CO)NC(=O)[C@@H](NC(=O)[C@H](Cc1ccccc1)NC(=O)[C@@H](NC(=O)CNC(=O)[C@H](CCC(N)=O)NC(=O)C(C)(C)NC(=O)[C@@H](N)Cc1c[nH]cn1)[C@@H](C)O)[C@@H](C)O)C(C)C)C(=O)N[C@@H](CC(=O)O)C(=O)N[C@@H](C)C(=O)N[C@@H](CCCNC(=N)N)C(=O)N[C@@H](CCCNC(=N)N)C(=O)N[C@@H](C)C(=O)N[C@@H](CCC(N)=O)C(=O)N[C@@H](CC(=O)O)C(=O)N[C@@H](Cc1ccccc1)C(=O)N[C@H](C(=O)N[C@@H](CCC(N)=O)C(=O)N[C@@H](Cc1c[nH]c2ccccc12)C(=O)N[C@@H](CC(C)C)C(=O)N[C@@H](CC(C)C)C(=O)N[C@@H](CCCCNC(=O)COCCOCCNC(=O)COCCOCCNC(=O)CC[C@H](NC(=O)CC[C@H](NC(=O)CC[C@H](NC(=O)CCCCCCCCCCCCCCCCC(=O)O)C(=O)O)C(=O)O)C(=O)O)C(=O)N[C@H](C(N)=O)[C@@H](C)O)C(C)C` [Example 70, N^ε28-[2-[2-[2-[[2-[2-[2-[[(4S)-4-carboxy-4-[[(4S)-4-carboxy-4-[[(4S)-4-carboxy-4-(17-carboxyheptadecanoylamino)butanoyl]amino]butanoyl]amino]butanoyl]amino]ethoxy]ethoxy]acetyl]amino]ethoxy]ethoxy]acetyl]-[Aib2,Val10,Ala16,Leu27,Lys28]-Glucagon amide] (H-H[Aib]QGTFTSDVSKYLDARRAQDFVQWLLK([AEEA-AEEA-γGlu-γGlu-γGlu-C18 diacid])T-NH2), the IC50 at human GLP-1 receptor amounted to 0.2 nM.

The record behind these values is patent US9474790B2, “Stable, protracted GLP-1/glucagon receptor co-agonists for medical use” (Novo Nordisk A/S, priority 2013, dated 2016).
